“And” between values parts separate entries of the source, which are not always exact repeats. Equal entries are not always repeated.

The text below walks through data of the Bradley open melting point set (2014).

What is called melting point is the temperature, or range, at which the solid turns liquid. On to `O=C(c1ccc(Br)cc1)c1ccc(Br)cc1` [p,p'-dibromobenzophenone], for which the melting point is 175 °C. The compound `COc1ccc(OC)cc1` [1,4-Dimethoxybenzene] came in with a melting point of 58 °C. The compound `COCCOCCOC` [2-methoxyethyl_ether] showed a melting point of -64 °C. `CCC(C)NC(=O)C(C(F)(F)F)C(F)(F)F` (stereo not given) came in with a melting point of 112 °C. The result for `O=C(Oc1ccccc1)c1ccccc1O` [phenyl salicylate] reads 42.2 °C; that for `CC(C)(C)N1CCNC1=O` [1-tert-butyl-2-imidazolidinone], 137 °C. In turn, `Brc1cccc2ccccc12` [1-bromonaphthalene] registered a melting point of -1 °C. The result for `COc1ccc(C(=O)O)cc1` [4-Methoxybenzoic acid] reads 184 °C. Regarding `CCCC(C)Cl` (stereo not given) [2-chloropentane], the melting point is -137 °C. The result for `CCC(=O)OC` [methyl propionate] reads -88 °C; that for `Nc1ncnc2c1ncn2[C@@H]1O[C@H](CO)[C@@H](O)[C@H]1O` [Adenosine], 236 °C; that for `O=C1OS(=O)(=O)c2ccccc21` [2-sulfobenzoic anhydride], 120 °C. `CCCCCCCCCl` [1-chlorooctane]: the melting point is -58 °C. Take `c1ccc2scnc2c1` [1,3-Benzothiazole]: the melting point turned out to be 2 °C. Compound `N#Cc1ccc(C=O)cc1` [4-cyanobenzaldehyde] returned a melting point of 102 °C. The result for `CCC(C)(C)O` [2-methyl-2-butanol] reads -8 °C. The result for `CNc1ccccc1` [N-Methylaniline] reads -57 °C; that for `O=Cc1coc2ccccc2c1=O` [chromone-3-carboxaldehyde], 152 °C. As for `C=CC(=O)OCC` [Ethyl acrylate], the melting point is -71 °C. The result for `C=CC(=O)OCC(CC)CCCC` (stereo not given) [2-ethylhexyl acrylate] reads -90 °C; that for `CC(C)Cc1ccc(C(C)C(=O)O)cc1` (stereo not drawn) [(+/+)-ibuprofen], 74.6 °C; that for `Oc1cccc(F)c1` [3-fluorophenol], 12 °C. The result for `CCCCCCCCCCCCCCCCCCCC` [Icosane] reads 36.7 °C; that for `N#CCc1ccc(Br)cc1` [p-bromophenylacetonitrile], 48 °C; that for `ClCCCCCCl` [1,5-dichloropentane], -72 °C. The result for `C1CCOC1` [tetrahydrofuran] reads -108 °C. Regarding `Clc1ccc(Br)c(Cl)c1` [1-bromo-2,4-dichlorobenzene], the melting point was found to be 27 °C. The compound `OCCOc1ccccc1` [2-phenoxyethanol] came in with a melting point of 12 °C.

`Cc1cc(Cl)ccc1Cl` [2,5-dichlorotoluene] displayed a melting point of 5 °C. The result for `O=C(O)Cc1cccc(F)c1` [3-fluorophenylacetic acid] reads 46 °C; that for `ClCc1ccccc1Cl` [2-chlorobenzyl chloride], -13 °C; that for `Oc1ccccc1O` [1,2-Dihydroxybenzene], 105 °C. The compound `O=C1CN=C(c2ccccc2Cl)c2cc([N+](=O)[O-])ccc2N1` [Clonazepam] registered a melting point of 238 °C. `CC1(C)[C@@H](C(=O)O)CC[C@@]1(C)C(=O)O` [(1R,3S)-camphoric acid] registered a melting point of 186 °C. The result for `CCCCP(CCCC)CCCC` [tri-n-butylphosphine] reads -65 °C; that for `OB(O)c1c(F)c(F)c(F)c(F)c1F` [2,3,4,5,6-pentafluorobenzeneboronic acid], 253 °C; that for `COc1ccc(C=C[N+](=O)[O-])cc1OCc1ccccc1` [2-(benzyloxy)-1-methoxy-4-(2-nitrovinyl)benzene], 120 °C.

Regarding `CCCCCN` [1-aminopentane], the melting point is -55 °C. The result for `CCCCCCCCOc1cc(N(NC(=O)OC(C)(C)C)C(=O)OC(C)(C)C)cc(OCCCCCCCC)c1OCCCCCCCC` reads 73.5 °C; that for `COc1ccccc1-c1ccc(/C=C/C(=O)c2ccccc2)o1`, 99 °C; that for `Nc1n[nH]cc1Br` [3-amino-4-bromo-1h-pyrazole], 136 °C. The result for `Brc1ccccc1I` [o-bromoiodobenzene] reads 10 °C; that for `CC(C)[C@H](NC(=O)OCC1c2ccccc2-c2ccccc21)C(=O)O` [N-fmoc-L-valine], 144 °C. The result for `C=Cc1ccc(N)cc1` [4-aminostyrene] reads 24 °C; that for `COc1nccnc1NS(=O)(=O)c1ccc(N)cc1` [Sulfametopyrazine], 170 °C; that for `Cn1c(=O)c2c(ncn2C)n(C)c1=O` [caffeine], 238 °C (2×) and 235 °C (2×).

Regarding `COc1ccccc1OC(=O)c1ccccc1` [2-methoxyphenyl benzoate], the melting point was determined as 59 °C.

Consider `CN1CCN(CCCN2c3ccccc3Sc3ccc(Cl)cc32)CC1` [prochlorperazine], for which the melting point came to 228 °C.

For the compound `Nc1ccccc1C(=O)O` [o-aminobenzoic_acid], the melting point was found to be 146 °C. `Nc1ccc(C(F)(F)F)cc1` [4-(trifluoromethyl)aniline] displayed a melting point of 7 °C.

`Cc1cc(Cl)ccc1O` [4-chloro-2-methylphenol] showed a melting point of 47 °C.

`CCCCCCCCOc1ccc(N(NC(=O)OC(C)(C)C)C(=O)OC(C)(C)C)cc1OCCCCCCCC`: the melting point was 56 °C. The result for `c1cc2cccc3c4cccc5cccc(c(c1)c23)c54` [perylene] reads 277 °C and 278 °C (2×); that for `CC#N` [methyl_cyanide], -46 °C. The compound `Cc1ccc(S(=O)(=O)Cl)cc1` [p-toluenesulfonyl_chloride] displayed a melting point of 69 °C. The result for `COc1cc(OC)c(OC)cc1C=O` [2,4,5-trimethoxybenzaldehyde] reads 114 °C; that for `CC(=O)Oc1c(C)c(C)c2c(c1C)CC[C@@](C)(CCC[C@H](C)CCC[C@H](C)CCCC(C)C)O2` [vitamin e acetate], -28 °C. The result for `O=C(CCCc1ccccc1)c1ccccc1` [1,4-diphenyl-1-butanone] reads 55 °C; that for `CC1=C(/C=C/C(C)=C/C=C/C(C)=C/C(=O)O)C(C)(C)CCC1` [retinoic acid], 181 °C. The result for `Oc1cc(O)c(Cl)cc1Cl` [4,6-dichlororesorcinol] reads 115 °C; that for `O=C=Nc1cccc([N+](=O)[O-])c1` [3-nitrophenyl isocyanate], 52 °C. Consider `Brc1ccc(Br)cc1` [1,4-Dibromobenzene], for which the melting point amounted to 88 °C.

Take `O=C(O)c1ccccc1Cl` [2-chlorobenzoic acid]: the melting point worked out at 140 °C.

Consider `O=C1C=C(Cl)C(=O)C=C1Cl` [2,5-Dichloro-1,4-benzoquinone], for which the melting point came to 162 °C. The result for `N#CCc1ccc(C#N)cc1` [p-cyano_phenylacetonitrile] reads 100 °C. The result for `CC(C)(C)C=O` [trimethylacetaldehyde] reads 6 °C; that for `O=C(c1ccccc1)c1cccc(Cl)c1` [3-chlorobenzophenone], 83 °C; that for `C[C@]12C/C(=C/O)C(=O)C[C@@H]1CC[C@@H]1[C@@H]2CC[C@@]2(C)[C@H]1CC[C@]2(C)O`, 179 °C. The result for `CCC(=O)O` [propanoic_acid] reads -21 °C; that for `O=C(Nc1ccccc1)OC1CCCCCC1OC(=O)Nc1ccccc1` (stereo not given) [cycloheptane-1,2-diyl bis(phenylcarbamate)], 174 °C. In turn, `CCC(C)=NO` [N-Hydroxybutan-2-imine] came in with a melting point of -29.5 °C. The result for `CCCCNC(=O)NS(=O)(=O)c1ccc(C)cc1` [Tolbutamide] reads 128 °C; that for `C1=CCCCCCCCCCC1` [cyclododecene_(trans)], 0 °C; that for `OB(O)c1cccc(F)c1` [3-fluorobenzeneboronic acid], 214 °C. As for `Cc1c(C(=O)O)cnn1-c1ccccc1` [OSM-S-24], the melting point came to 168 °C. The result for `CC1(C)[C@H]2CC[C@]1(C)C(=O)C2` [(1S)-camphor] reads 178 °C; that for `C#CCCCCCCCC` [1-decyne], -44 °C. The result for `CCC/C=C\CCC` [cis-4-octene] reads -119 °C. The result for `CC(C)CCCC(C)(C)O` [2,6-dimethyl-2-heptanol] reads -10 °C.

Regarding `C=CCNC(N)=S` [N-allylthiourea], the melting point stood at 74 °C. The compound `CCC(=O)O` [Propionic acid] had a melting point of -20.8 °C. The result for `O=C(O)c1ccc(F)c(F)c1` [3,4-difluorobenzoic acid] reads 123 °C; that for `O=C=NCCCCCCN=C=O` [1,6-Diisocyanatohexane], -55 °C.

`CCc1cccc(O)c1` [3-ethylphenol] had a melting point of -4 °C.

Regarding `C/C=C/C=O` [crotonaldehyde], the melting point is -76 °C. The result for `C1CCC(C2CCCCC2)CC1` [1,1'-Bi(cyclohexyl)] reads 4 °C; that for `C=C(F)Cl` [1-Chloro-1-fluoroethene], -169 °C. The result for `COc1ccccc1/C=C(/C#N)c1nc2ccccc2s1` reads 159 °C; that for `Cc1ccccc1N1C(=O)c2cc(S(N)(=O)=O)c(Cl)cc2NC1C` (stereo not given) [Metolazone], 256 °C. The result for `NC(=O)c1cnccn1` [Pyrazinamide] reads 192 °C; that for `O=Cc1c(Cl)cccc1Cl` [2,6-dichlorobenzaldehyde], 71 °C. Compound `BrCBr` [dibromomethane] registered a melting point of -53 °C. Compound `COc1ccc(/C=C/[N+](=O)[O-])c(OC)c1` [2,4-dimethoxy-beta-nitrostyrene] registered a melting point of 100 °C. Consider `CC(C)(C)c1cc(C#N)cc(C(C)(C)C)c1O` [3,5-di-tert-butyl-4-hydroxybenzonitrile], for which the melting point came out at 142 °C. The result for `O=C1CCC(N2C(=O)c3ccccc3C2=O)C(=O)N1` (stereo not given) [2-(2,6-Dioxopiperidin-3-yl)-1H-isoindole-1,3(2H)-dione] reads 270 °C.
